Reference: ChEMBL document CHEMBL1152306, “Characterization of novel furan compounds on the basis of their radical scavenging activity and cytoprotective effects against glutamate- and lipopolysaccharide-induced insults” (Bioorg Med Chem, 2008)
The source made the active and inactive calls. The calls are words filed in the database; no cut-off is given here.

Tests used:
[1] = molecular target: T1, Prostaglandin G/H synthase 2 (Homo sapiens, UniProt P35354); test: Inhibition of COX2
T1 sequence (P35354 whole entry): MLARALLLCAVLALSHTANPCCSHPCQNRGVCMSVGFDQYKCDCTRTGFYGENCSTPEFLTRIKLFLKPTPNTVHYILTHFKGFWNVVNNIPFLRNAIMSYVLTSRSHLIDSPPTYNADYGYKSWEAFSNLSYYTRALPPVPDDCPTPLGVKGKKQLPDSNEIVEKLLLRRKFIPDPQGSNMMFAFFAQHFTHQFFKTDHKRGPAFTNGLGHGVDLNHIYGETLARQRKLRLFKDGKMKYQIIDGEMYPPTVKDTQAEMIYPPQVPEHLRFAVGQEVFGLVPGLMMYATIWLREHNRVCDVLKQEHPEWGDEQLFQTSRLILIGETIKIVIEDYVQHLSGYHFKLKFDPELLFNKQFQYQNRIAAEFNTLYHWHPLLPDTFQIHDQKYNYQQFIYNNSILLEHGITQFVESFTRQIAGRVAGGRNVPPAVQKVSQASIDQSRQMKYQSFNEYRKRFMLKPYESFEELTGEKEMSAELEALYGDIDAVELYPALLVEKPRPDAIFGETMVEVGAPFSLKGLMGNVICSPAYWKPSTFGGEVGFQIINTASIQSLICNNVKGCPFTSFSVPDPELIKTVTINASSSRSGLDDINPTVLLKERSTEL

[2] = molecular target: Prostaglandin G/H synthase 1 (Homo sapiens, UniProt P23219); test: Inhibition of COX1
Cerebral cortex neuron [3] = test: Neuroprotective activity against glutamate-induced neuronal cell death in Sprague-Dawley rat primary cortical neuron at 0.25 uM administered simultaneously with glutamate after 24 hrs by MTT assay; assay type: functional, cell-based
Cerebral cortex neuron [4] = test: Neuroprotective activity against glutamate-induced neuronal cell death in Sprague-Dawley rat primary cortical neuron at 0.25 uM pretreated for 24 hrs prior to glutamate challenge measured after 24 hrs by MTT assay; assay type: functional, cell-based
THP-1 = test: Cytoprotective activity against LPS-induced cell death in human THP1 cells at 10 uM pretreated for 24 hrs prior to LPS challenge measured after 24 hrs by MTT assay; assay type: functional, cell-based
[5] = Radical scavenging activity assessed as relative reactivity against beta-carotene in 2,2-azobis[2-(2-imidazolin-2-yl)-propane]dihydrochloride solution; assay type: physicochemical
[6] = Radical scavenging activity assessed as rate constant; assay type: physicochemical
PC-12 [7] = test: Cytoprotective activity against 6-OHDA-induced cell death in rat PC12 cells at 50 uM pretreated for 24 hrs prior to 6-OHDA challenge measured after 24 hrs by MTT assay; assay type: functional, cell-based
[8] = Radical scavenging activity assessed as relative reactivity against beta-carotene in benzene solution; assay type: physicochemical
PC-12 [9] = test: Cytoprotective activity against 13(S)-HpODE-induced cell death in rat PC12 cells pretreated for 24 hrs prior to 13(S)-HpODE challenge measured after 24 hrs by MTT assay; assay type: functional, cell-based
PC-12 [10] = test: Cytoprotective activity against LPS-induced cell death in rat PC12 cells at 1 to 50 uM pretreated for 24 hrs prior to LPS challenge measured after 24 hrs by MTT assay; assay type: functional, cell-based
[11] = molecular target: T2, Polyunsaturated fatty acid 5-lipoxygenase (Homo sapiens, UniProt P09917); test: Inhibition of 5LOX
T2 sequence (P09917 whole entry): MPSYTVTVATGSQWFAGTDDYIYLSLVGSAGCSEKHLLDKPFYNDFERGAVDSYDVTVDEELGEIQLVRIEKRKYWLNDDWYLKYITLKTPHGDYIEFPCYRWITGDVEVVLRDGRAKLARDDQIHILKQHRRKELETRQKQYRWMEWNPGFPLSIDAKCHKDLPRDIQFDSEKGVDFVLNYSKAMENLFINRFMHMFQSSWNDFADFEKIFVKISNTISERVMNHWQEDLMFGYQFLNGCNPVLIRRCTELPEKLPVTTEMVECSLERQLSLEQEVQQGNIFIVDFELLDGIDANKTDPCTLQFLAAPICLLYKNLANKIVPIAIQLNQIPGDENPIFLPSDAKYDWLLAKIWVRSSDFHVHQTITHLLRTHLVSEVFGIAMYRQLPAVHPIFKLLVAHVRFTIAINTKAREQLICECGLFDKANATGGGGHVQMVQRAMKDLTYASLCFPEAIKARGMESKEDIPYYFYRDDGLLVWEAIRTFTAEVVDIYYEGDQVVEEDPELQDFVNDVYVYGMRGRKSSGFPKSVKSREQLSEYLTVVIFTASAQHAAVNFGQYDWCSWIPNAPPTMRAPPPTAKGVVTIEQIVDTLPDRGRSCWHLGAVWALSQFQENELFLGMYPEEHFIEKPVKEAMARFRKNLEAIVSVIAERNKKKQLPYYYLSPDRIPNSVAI

PC-12 [12] = test: Cytoprotective activity against 6-OHDA-induced cell death in rat PC12 cells at 25 uM pretreated for 24 hrs prior to 6-OHDA challenge measured after 24 hrs by MTT assay; assay type: functional, cell-based
[13] = Radical scavenging activity assessed as suppression of MeO-AMVN-induced beta-carotene oxidation in benzene solution; assay type: physicochemical
[14] = Radical scavenging activity assessed as relative reactivity against beta-carotene in MeO-AMVN solution; assay type: physicochemical
Cerebral cortex neuron [15] = test: Neuroprotective activity against glutamate-induced neuronal cell death in Sprague-Dawley rat primary cortical neuron at 1 uM administered simultaneously with glutamate after 24 hrs by MTT assay; assay type: functional, cell-based
Cerebral cortex neuron [16] = test: Neuroprotective activity against glutamate-induced neuronal cell death in Sprague-Dawley rat primary cortical neuron at 1 uM pretreated for 24 hrs prior to glutamate challenge measured after 24 hrs by MTT assay; assay type: functional, cell-based
Cerebral cortex neuron [17] = test: Neuroprotective activity against glutamate-induced neuronal cell death in Sprague-Dawley rat primary cortical neuron at 2.5 uM pretreated for 24 hrs prior to glutamate challenge measured after 24 hrs by MTT assay; assay type: functional, cell-based

Sequence of Prostaglandin G/H synthase 1 (P23219 whole entry): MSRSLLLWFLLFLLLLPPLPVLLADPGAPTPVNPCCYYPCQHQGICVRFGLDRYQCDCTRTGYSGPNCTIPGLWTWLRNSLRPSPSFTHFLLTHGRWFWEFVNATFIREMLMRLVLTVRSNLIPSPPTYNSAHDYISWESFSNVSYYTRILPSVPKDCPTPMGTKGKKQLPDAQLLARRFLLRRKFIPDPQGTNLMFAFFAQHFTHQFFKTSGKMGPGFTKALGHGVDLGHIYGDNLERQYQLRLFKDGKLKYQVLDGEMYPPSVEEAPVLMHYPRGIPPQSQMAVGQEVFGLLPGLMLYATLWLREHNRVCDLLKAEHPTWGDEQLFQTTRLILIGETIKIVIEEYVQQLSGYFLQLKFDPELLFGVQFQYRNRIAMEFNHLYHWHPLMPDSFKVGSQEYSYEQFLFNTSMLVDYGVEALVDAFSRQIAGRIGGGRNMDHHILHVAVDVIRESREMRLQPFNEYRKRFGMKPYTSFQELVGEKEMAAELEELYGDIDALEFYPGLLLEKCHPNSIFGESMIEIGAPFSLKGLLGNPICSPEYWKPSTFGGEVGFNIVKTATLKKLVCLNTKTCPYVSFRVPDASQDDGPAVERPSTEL

Q: Which results are given for `CCCCC[C@H](O)CC(=O)CCc1ccc(O)c(OC)c1` [GINGEROL]?
A: IC50 [1]: 125 µM; IC50 [2]: 129 µM

Q: Which Activity (Cerebral cortex neuron [3]) does the source give for `CC(C)=CCC/C(C)=C/CC/C(C)=C/CC[C@]1(C)CCc2c(C)c(O)c(C)c(C)c2O1` here?
A: Active

Q: What about the Activity (Cerebral cortex neuron [4]) of the same compound?
A: Active

Q: Which results are given for `CCc1ccc(-c2ccc(O)c(OC)c2)o1`?
A: IC50 [1]: 9.4 µM; Activity (THP-1): Active; Activity [5]: 0.69; K [6]: 2 ×10⁴ /M/s; Activity (PC-12 [7]): Active; Activity [8]: 0.58; Activity (PC-12 [9]): Active; Activity (PC-12 [10]): Active; IC50 [11]: 0.53 µM; Activity (PC-12 [12]): Active; IC50 [2]: 13 µM; Activity [13]: Dose-dependent effect; Activity [14]: 1.1

Q: Which results are given for `CCCCCCc1ccc(-c2ccc(O)c(OC)c2)o1`?
A: IC50 [1]: 8.4 µM; Activity (THP-1): Active; Activity [5]: 1; K [6]: 3 ×10⁴ /M/s; Activity [8]: 0.62; Activity (PC-12 [9]): Active; Activity (PC-12 [10]): Active; IC50 [11]: 2.6 µM; Activity (Cerebral cortex neuron [15]): Active; Activity (Cerebral cortex neuron [16]): Active; IC50 [2]: 62 µM; Activity [13]: Dose-dependent effect; Activity [14]: 1.3

Q: With `CCCCC/C=C/C(=O)CCc1ccc(O)c(OC)c1` [SHOGAOL] as the compound, how does the IC50 [11] read?
A: 7.4 µM

Q: Which K [6] does the source give for `Cc1c(C)c2c(c(C)c1O)CC[C@@](C)(CCC[C@H](C)CCC[C@H](C)CCCC(C)C)O2` [ALPHA-TOCOPHEROL] here?
A: 1 ×10⁶ /M/s

Q: And the Activity (Cerebral cortex neuron [17])?
A: Active
